From patent publication US20260092061A1, “COMPOUNDS FOR TARGETED PROTEIN DEGRADATION” (Amphista Therapeutics Limited, priority 2022, published 2026)
Read-outs that look alike come from different tables or passages of the source.

Legend:
Format in all cases: cell-based
BRD9 [1] = molecular target: T1, BRD9 (Homo sapiens, UniProt Q9H8M2); assay: BRD9 degradation, HiBiT-BRD9 KI HEK293 (LgBiT) cells, NanoGlo Lytic Endpoint assay (Assay Protocol 1); details: for DC50: 6 h of treatment, read-out: Assay 1 DC50
T1 sequence (Q9H8M2 1-597): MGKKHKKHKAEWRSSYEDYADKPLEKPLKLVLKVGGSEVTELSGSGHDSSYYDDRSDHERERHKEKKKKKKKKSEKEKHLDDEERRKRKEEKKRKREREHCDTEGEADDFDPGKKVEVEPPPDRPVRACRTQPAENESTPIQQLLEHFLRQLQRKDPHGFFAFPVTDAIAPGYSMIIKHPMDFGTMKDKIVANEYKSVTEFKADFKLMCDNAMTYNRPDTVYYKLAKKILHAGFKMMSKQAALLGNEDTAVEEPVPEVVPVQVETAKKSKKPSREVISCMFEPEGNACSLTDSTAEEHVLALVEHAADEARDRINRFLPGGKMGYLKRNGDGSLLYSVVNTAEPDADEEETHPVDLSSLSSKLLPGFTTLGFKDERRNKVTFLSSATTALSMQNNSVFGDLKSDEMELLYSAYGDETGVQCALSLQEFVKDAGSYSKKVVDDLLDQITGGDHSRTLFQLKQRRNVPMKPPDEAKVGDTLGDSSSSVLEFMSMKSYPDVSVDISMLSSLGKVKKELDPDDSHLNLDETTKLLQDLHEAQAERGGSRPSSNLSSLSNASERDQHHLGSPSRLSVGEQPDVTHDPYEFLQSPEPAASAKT
Summary of the method: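 HiBiT-tagged BRD9 knock-in HEK293 (LgBiT) cells exposed to compounds for 6 h at 37 °C, 5% CO2. Residual BRD9 measured by HiBiT lytic luminescence. % BRD9 remaining normalised to DMSO-treated cells (high) and no-cell wells (low).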

BRD9 [2] = molecular target: T1, BRD9; assay: as above; details: Table 3; assay 1; 5 h of treatment
BRD4 = molecular target: T2, BRD4 (Homo sapiens, UniProt O60885); assay: BRD4 degradation, HiBiT-BRD4 HEK293 CRISPR CPM cells, NanoGlo Lytic Endpoint assay (Assay Protocol 1); details: HEK293; Table 3; assay 1; 1 μM compound at 5 h of treatment
T2 construct: HiBiT-BRD4 HEK293 CRISPR CPM (Promega CS302312); host or cells: HEK293, CRISPR-edited (HiBiT at the BRD4 locus)

[3] = HEK293, Table 2, BRD9 degradation, Assay Protocol 1, 1 μM compound at 6 h of treatment, read-out: Assay 1 Dmax
[4] = HEK293, Table 3, assay 1, 1 μM compound at 5 h of treatment, read-out: BRD9 Dmax (%)
[5] = Table 2, BRD9 degradation, Assay Protocol 1

| Dmax at 1 µM (BRD9 [1]; [3]) [%] | Dmax at 1 µM (BRD9 [1]; [4]) [%] | DC50 (BRD9 [1]; [5]) [nM] | DC50 (BRD9 [2]) [nM] | Dmax (BRD4) [%] | Dmax (BRD9 [1]; [4]) [%] | SMILES |
| --- | --- | --- | --- | --- | --- | --- |
| 70 to 75 | 70 to 75 | 10 to 25 | 10 to 25 | < 25 |  | COc1cc(-c2cn(C)c(=O)c(C)c2C)cc(OC)c1CN1CCCN(Cc2cccc3c2CCN(C(=O)/C(C#N)=C/C(C)(C)C)C3C)CC1 (mixture of isomers) [Compound A72, (E/Z)-2-(5-((4-(2,6-dimethoxy-4-(1,4,5-trimethyl-6-oxo-1,6-dihydropyridin-3-yl)benzyl)-1,4-diazepan-1-yl)methyl)-1-methyl-1,2,3,4-tetrahydroisoquinoline-2-carbonyl)-4,4-dimethylpent-2-enenitrile] |
| 70 to 75 | 70 to 75 | 1.25 to 10 | 1.25 to 10 | < 25 |  | COc1cc(-c2cn(C)c(=O)c(C)c2C)cc(OC)c1CN1CCN(Cc2cccc3c2CCN(C(=O)/C(C#N)=C/c2cccc(Br)n2)C3C)CC1 (mixture of isomers) [Compound A16, (E/Z)-3-(6-bromopyridin-2-yl)-2-(5-((4-(2,6-dimethoxy-4-(1,4,5-trimethyl-6-oxo-1,6-dihydropyridin-3-yl)benzyl)piperazin-1-yl)methyl)-1-methyl-1,2,3,4-tetrahydroisoquinoline-2-carbonyl) acrylonitrile] |
| 70 to 75 | 70 to 75 | < 1.25 | < 1.25 | < 25 |  | COc1cc(-c2cn(C)c(=O)c(C)c2C)cc(OC)c1CN1CCN(Cc2cccc3c2CCN(C(=O)/C(C#N)=C/c2nccs2)C3C)CC1 (mixture of isomers) [Compound A4, (E/Z)-2-(5-((4-(2,6-dimethoxy-4-(1,4,5-trimethyl-6-oxo-1,6-dihydropyridin-3-yl)benzyl)piperazin-1-yl)methyl)-1-methyl-1,2,3,4-tetrahydroisoquinoline-2-carbonyl)-3-(thiazol-2-yl)acrylonitrile] |
| 40 to 70 |  | < 1.25 | < 1.25 | < 25 | 40 to 70 | COc1cc(-c2cn(C)c(=O)c3cnccc23)cc(OC)c1CN1CCN(Cc2cccc3c2CCN(C(=O)/C(C#N)=C\c2ncc(C)s2)C3C)CC1 (mixture of isomers) [Compound A10, (E/Z)-2-(5-((4-(2,6-dimethoxy-4-(2-methyl-1-oxo-1,2-dihydro-2,7-naphthyridin-4-yl)benzyl)piperazin-1-yl)methyl)-1-methyl-1,2,3,4-tetrahydroisoquinoline-2-carbonyl)-3-(5-methylthiazol-2-yl)acrylonitrile] |
| > 75 | > 75 | < 1.25 | < 1.25 | < 25 |  | COc1cc(-c2cn(C)c(=O)c3cnccc23)cc(OC)c1CN(C)Cc1cccc2c1CCN(C(=O)/C(C#N)=C/c1cccc(Br)n1)C2C (mixture of isomers) [Compound A50] |
| > 75 | > 75 | 1.25 to 10 | 1.25 to 10 | < 25 |  | COc1cc(-c2cn(C)c(=O)c(C)c2C)cc(OC)c1CN1CCC(Oc2cccc3c2CCN(C(=O)/C(C#N)=C/c2cccc(Br)n2)C3C)CC1 (mixture of isomers) [Compound A68, (E/Z)-3-(6-bromopyridin-2-yl)-2-(5-((1-(2,6-dimethoxy-4-(1,4,5-trimethyl-6-oxo-1,6-dihydropyridin-3-yl)benzyl)piperidin-4-yl)oxy)-1-methyl-1,2,3,4-tetrahydroisoquinoline-2-carbonyl)acrylonitrile] |

| SMILES | Dmax at 1 µM (BRD9 [1]; [3]) [%] | Dmax at 1 µM (BRD9 [1]; [4]) [%] | DC50 (BRD9 [1]; [5]) [nM] | DC50 (BRD9 [2]) [nM] | Dmax (BRD4) [%] | Dmax (BRD9 [1]; [4]) [%] |
| --- | --- | --- | --- | --- | --- | --- |
| COc1cc(-c2cn(C)c(=O)c(C)c2C)cc(OC)c1CN1CC2CC(C1)N2Cc1cccc2c1CCN(C(=O)/C(C#N)=C/C(C)(C)C)C2C (mixture of isomers) [Compound A71, (E/Z)-2-(5-((3-(2,6-dimethoxy-4-(1,4,5-trimethyl-6-oxo-1,6-dihydropyridin-3-yl)benzyl)-3,6-diazabicyclo[3.1.1]heptan-6-yl)methyl)-1-methyl-1,2,3,4-tetrahydroisoquinoline-2-carbonyl)-4,4-dimethylpent-2-enenitrile] | 70 to 75 | 70 to 75 | 1.25 to 10 | 1.25 to 10 | 25 to 40 |  |
